{"source": "patent US20130245081A1", "about": "“Compositions and Methods for Treating Amyotrophic Lateral Sclerosis” (priority 2009, published 2013)", "key": {"[1]": {"assay": "clinical", "settings": "human, in vivo", "description": "Pharmacokinetic analyses were based on data from 20 subjects in the 25 mg Q12H (n=8), 75 mg Q12H (n=8), and 150 mg Q12H (n=4) groups."}, "[2]": {"tested_on": "healthy adult subjects", "description": "In both studies, safety was assessed by periodic measurement of vital signs, 12-lead ECGs, physical examinations, clinical laboratory parameters, and reports of adverse events. Baseline vital signs and changes from baseline were summarized with descriptive statistics by body position (supine or standing), dose level, and time point. Additionally, the number of subjects with substantial increases or decreases in blood pressure (>20 mmHg) and heart rate (>15 bpm) were tabulated by dose level and visit. The arithmetic mean of 3 readings of blood pressure and heart rate at each visit/position was used for the analysis. The shift from baseline for physical examination results was tabulated by body system, visit, and dose level. The overall ECG findings were summarized using a shift table comparing post-baseline visits to baseline. Laboratory parameters were summarized at each timepoint, including changes from baseline by dose level. In addition, abnormal values outside normal ranges were flagged. All safety data were summarized with descriptive statistics by dose group.\nIn the first study, subjects remained in the clinic for 72 hours after dosing, during which time they were monitored for safety and tolerability, and later returned to the clinic for a brief follow-up visit 7 days post-dose for clinical and laboratory assessments. In the second study, end-of-treatment evaluations were performed on Day 9, approximately 48 hours after the final dose, and subjects were discharged from the clinic for an outpatient visit on Day 10 and a follow-up visit on Day 14."}, "[3]": {"tested_on": "patients with ALS", "settings": "for treatment failures (6-point or greater drop in ALSFRS-R total score): baseline to 12 weeks; for treatment failures (reduction in VC of 20% or greater): baseline to Week 12"}, "[4]": {"tested_on": "patients with ALS"}, "[5]": {"settings": "combined active treatment groups, Part 1"}}, "note": "Where two headings read alike, the source gives them in different places."}
{"molecule": "CCCN[C@@H]1CCc2nc(N)sc2C1", "note": "[dexpramipexole, (6R)-2-amino-4,5,6,7-tetrahydro-6-(propylamino)benzothiazole]", "values": [{"measurement": "dose linearity of pharmacokinetics", "setting": "[1]", "value": "linear"}, {"measurement": "Tmax", "setting": "[1]; 25 mg", "value": 1.77, "unit": "h"}, {"measurement": "Tmax", "setting": "[1]; 75 mg", "value": 1.82, "unit": "h"}, {"measurement": "Tmax", "setting": "[1]; 150 mg", "value": 1.7, "unit": "h"}, {"measurement": "half-life", "setting": "[1]; 150 mg", "value": "6.63 to 8.73", "unit": "h"}, {"measurement": "drug effect on vital signs, physical examinations, ECG, hematology and urinalysis", "setting": "[2]; either study", "value": "no evidence"}, {"measurement": "serious adverse events or adverse events that led to early discontinuation", "setting": "[2]; either study", "value": "No serious adverse events"}, {"measurement": "subjects reporting dizziness", "setting": "[2]; first study", "value": 3, "unit": "subjects"}, {"measurement": "subjects reporting headache", "setting": "[2]; second study", "value": 5, "unit": "subjects"}, {"measurement": "safety and tolerability", "setting": "[2]; single doses up to 300 mg, multiple doses up to 150 mg twice daily for 4½ days", "value": "safe and well tolerated"}, {"measurement": "treatment failures (6-point or greater drop in ALSFRS-R total score)", "setting": "[3]; 50 mg/day", "value": 35, "unit": "%"}, {"measurement": "mean change from baseline to endpoint in ALSFRS-R total score", "setting": "[3]; 50 mg, 12 weeks", "value": "−5.0"}, {"measurement": "median change from baseline to endpoint in ALSFRS-R score", "setting": "[3]; 50 mg, 12 weeks", "value": "−3.0"}, {"measurement": "mean ALSFRS-R total score", "setting": "[3]; 50 mg, Week 12 of Part 1", "value": 32.4}, {"measurement": "mean McGill SIS score", "setting": "[3]; 50 mg, Week 12 of Part 1", "value": 6.3}, {"measurement": "mean upright VC", "setting": "[3]; 50 mg, Week 12 of Part 1", "value": 82.5, "unit": "%"}, {"measurement": "treatment failures (reduction in VC of 20% or greater)", "setting": "[3]; 50 mg", "value": 13, "unit": "%"}, {"measurement": "treatment failures (6-point or greater drop in ALSFRS-R total score)", "setting": "[3]; 150 mg/day", "value": 15, "unit": "%"}, {"measurement": "mean change from baseline to endpoint in ALSFRS-R total score", "setting": "[3]; 150 mg, 12 weeks", "value": "−3.3"}, {"measurement": "median change from baseline to endpoint in ALSFRS-R score", "setting": "[3]; 150 mg, 12 weeks", "value": "−2.5"}, {"measurement": "mean ALSFRS-R total score", "setting": "[3]; 150 mg, Week 12 of Part 1", "value": 35.8}, {"measurement": "mean upright VC", "setting": "[3]; 150 mg, Week 12 of Part 1", "value": 82.3, "unit": "%"}, {"measurement": "treatment failures (reduction in VC of 20% or greater)", "setting": "[3]; 150 mg", "value": 12, "unit": "%"}, {"measurement": "treatment failures (6-point or greater drop in ALSFRS-R total score)", "setting": "[3]; 300 mg/day", "value": 8, "unit": "%"}, {"measurement": "mean fine motor domain change of ALSFRS-R (mean±SEM)", "setting": "[3]; 300 mg/day, study endpoint", "value": "−0.6±0.24"}, {"measurement": "mean change from baseline to endpoint in ALSFRS-R total score", "setting": "[3]; 300 mg, 12 weeks", "value": "−2.2"}, {"measurement": "median change from baseline to endpoint in ALSFRS-R score", "setting": "[3]; 300 mg, 12 weeks", "value": "−2.0"}, {"measurement": "reduction of mean ALSFRS-R decline compared with placebo", "setting": "[3]; 300 mg, 12 weeks", "value": 39, "unit": "%"}, {"measurement": "reduction of median ALSFRS-R decline compared with placebo", "setting": "[3]; 300 mg, 12 weeks", "value": 50, "unit": "%"}, {"measurement": "slope of ALSFRS-R scores (linear mixed-effects)", "setting": "[3]; 300 mg, Part 1", "value": "−0.878"}, {"measurement": "mean ALSFRS-R total score", "setting": "[3]; 300 mg, Week 12 of Part 1", "value": 36.2}, {"measurement": "mean McGill SIS score", "setting": "[3]; 300 mg, Week 12 of Part 1", "value": 7.3}, {"measurement": "mean upright VC", "setting": "[3]; 300 mg, Week 12 of Part 1", "value": 82.1, "unit": "%"}, {"measurement": "median upright VC", "setting": "[3]; 300 mg, Week 12 of Part 1", "value": 91.2, "unit": "%"}, {"measurement": "treatment failures (reduction in VC of 20% or greater)", "setting": "[3]; 300 mg", "value": 4, "unit": "%"}, {"measurement": "reduction in handwriting score (FIG. 4A)", "setting": "[3]; daily doses of 30 mg (so in the source)", "value": "almost no reduction"}, {"measurement": "Total AE's", "setting": "[4]; 50 mg, 12 weeks", "value": "19 (82.6%) N (%)"}, {"measurement": "percentage of subjects reporting AEs", "setting": "[4]; 50 mg, Part 1", "value": 83, "unit": "%"}, {"measurement": "subjects reporting SAEs", "setting": "[4]; 50 mg, Part 1", "value": 2, "unit": "subjects"}, {"measurement": "subjects with at least 1 AE possibly or probably treatment-related", "setting": "[4]; 50 mg, Part 1", "value": 17, "unit": "%"}, {"measurement": "Total AE's", "setting": "[4]; 150 mg, 12 weeks", "value": "25 (96.2%) N (%)"}, {"measurement": "Total AE's", "setting": "[4]; 300 mg, 12 weeks", "value": "23 (88.5%) N (%)"}, {"measurement": "percentage of subjects reporting AEs", "setting": "[4]; 300 mg, Part 1", "value": 89, "unit": "%"}, {"measurement": "subjects discontinued due to adverse event (nausea)", "setting": "[4]; 300 mg, Part 1", "value": 1, "unit": "subjects"}, {"measurement": "subjects reporting SAEs", "setting": "[4]; 300 mg, Part 1", "value": 3, "unit": "subjects"}, {"measurement": "subjects with at least 1 AE possibly or probably treatment-related", "setting": "[4]; 300 mg, Part 1", "value": 27, "unit": "%"}, {"measurement": "deaths during Part 1", "setting": "[4]; 50, 150, 300 mg, 12 weeks", "value": "No deaths"}, {"measurement": "AE fall", "setting": "[4]; [5]", "value": 32, "unit": "%"}, {"measurement": "AE headache", "setting": "[4]; [5]", "value": 13, "unit": "%"}, {"measurement": "AE muscular weakness", "setting": "[4]; [5]", "value": 24, "unit": "%"}, {"measurement": "AE nausea", "setting": "[4]; [5]", "value": 11, "unit": "%"}, {"measurement": "AE post lumber puncture syndrome", "setting": "[4]; [5]", "value": 19, "unit": "%"}, {"measurement": "safety and tolerability", "setting": "[4]; total daily doses of 50, 150, 300 mg, 12 weeks", "value": "safe and well-tolerated"}]}
